Test results as given in ChEMBL document CHEMBL4680289, “10-(4-Phenylpiperazine-1-carbonyl)acridin-9(10H)-ones and related compounds: Synthesis, antiproliferative activity and inhibition of tubulin polymerization” (Bioorg Med Chem Lett, 2021).
Calls of active or inactive are those of the source. The calls are words filed in the database; no cut-off is given here.

Tests used:
[1] = tested on: K562; test: Antiproliferative activity against human K562 cells assessed as cell growth inhibition measured after 48 hrs by MTT assay; assay type: functional, cell-based; conditions: K562, 48 h
[2] = Inhibition of porcine brain tubulin polymerization assessed as reduction in tubulin assembly at 37 degreeC measured after 40 mins in presence of GTP by turbidimetric analysis; set-up: species or system Sus scrofa
[3] = target: T1, Tubulin beta (Homo sapiens) (UniProt P68371+Q9H4B7+Q13509+P04350+Q3ZCM7+P07437+Q13885+Q9BVA1+Q9BUF5+A6NNZ2); test: Inhibition of N,N'-Ethylenebis(iodoacetamide) binding to beta-tubulin colchicine binding site in human K562 cells assessed as reduction in EBI/beta-tubulin adduct formation preincubated for 2.5 hrs followed by EBI addition and measured after 1.5 hrs by Western blot analysis relative to control; assay type: cell-based; conditions: time 4.0 hrs, concentration not given here
[4] = tested on: K562; test: Cell cycle arrest in human K562 cells assessed as increase in cell accumulation at G2/M phase measured after 18 hrs by propidium iodide/RNase FACSCalibur staining based flow cytometry; assay type: functional; conditions: dose 0.003-1 µmol/L
[5] = tested on: K562; test: Induction of apoptosis in human K562 cells at 3 uM measured after 48 hrs by Annexin V-FITC/7-AAD staining based flow cytometric analysis; assay type: functional, cell-based
[6] = target: T1, Tubulin beta (Homo sapiens); test: Inhibition of N,N'-Ethylenebis(iodoacetamide) binding to beta-tubulin colchicine binding site in human K562 cells assessed as reduction in EBI/beta-tubulin adduct formation at 1 to 10 uM preincubated for 2.5 hrs followed by EBI addition and measured after 1.5 hrs by Western blot analysis; assay type: cell-based; conditions: dose 1-10 µM, time 4.0 hrs
[7] = tested on: K562; test: Cell cycle arrest in human K562 cells assessed as increase in cell accumulation at G2/M phase at < 30 nM measured after 18 hrs by propidium iodide/RNase FACSCalibur staining based flow cytometry; assay type: functional; conditions: dose nM <30, time 18.0 hrs
[8] = tested on: SK-N-AS; test: Antiproliferative activity against human SK-N-AS cells assessed as cell growth inhibition measured after 72 hrs by sulforhodamine B assay; assay type: functional
[9] = Cytotoxicity against human IMR-90 cells assessed as cell growth inhibition measured after 72 hrs by sulforhodamine B assay; assay type: cell-based
[10] = tested on: BXPC-3; test: Antiproliferative activity against human BXPC-3 cells assessed as cell growth inhibition measured after 72 hrs by sulforhodamine B assay; assay type: functional
[11] = tested on: MG-63; test: Antiproliferative activity against human MG-63 cells assessed as cell growth inhibition measured after 72 hrs by sulforhodamine B assay; assay type: functional
[12] = tested on: HT-1080; test: Antiproliferative activity against human HT-1080 cells assessed as cell growth inhibition measured after 72 hrs by sulforhodamine B assay; assay type: functional
[13] = tested on: 5637; test: Antiproliferative activity against human 5637 cells assessed as cell growth inhibition measured after 72 hrs by sulforhodamine B assay; assay type: functional
[14] = tested on: HT-29; test: Antiproliferative activity against human HT-29 cells assessed as cell growth inhibition measured after 72 hrs by sulforhodamine B assay; assay type: functional
[15] = tested on: PANC-1; test: Antiproliferative activity against human PANC-1 cells assessed as cell growth inhibition measured after 72 hrs by sulforhodamine B assay; assay type: functional
[16] = Antiproliferative activity against human RDES cells assessed as cell growth inhibition measured after 72 hrs by sulforhodamine B assay; assay type: functional; conditions: RD-ES
[17] = tested on: Ramos; test: Antiproliferative activity against human Ramos cells assessed as cell growth inhibition measured after 72 hrs by sulforhodamine B assay; assay type: functional
[18] = tested on: DU-145; test: Antiproliferative activity against human DU-145 cells assessed as cell growth inhibition measured after 72 hrs by sulforhodamine B assay; assay type: functional
[19] = tested on: L-363; test: Antiproliferative activity against human L-363 cells assessed as cell growth inhibition measured after 72 hrs by sulforhodamine B assay; assay type: functional
[20] = tested on: MV4-11; test: Antiproliferative activity against human MV4-11 cells assessed as cell growth inhibition measured after 72 hrs by sulforhodamine B assay; assay type: functional
[21] = tested on: NCI-H460; test: Antiproliferative activity against human NCI-H460 cells assessed as cell growth inhibition measured after 72 hrs by sulforhodamine B assay; assay type: functional
[22] = tested on: SNB-75; test: Antiproliferative activity against human SNB-75 cells assessed as cell growth inhibition measured after 72 hrs by sulforhodamine B assay; assay type: functional
[23] = tested on: Ca-Ski; test: Antiproliferative activity against human Ca-Ski cells assessed as cell growth inhibition measured after 72 hrs by sulforhodamine B assay; assay type: functional
[24] = Cytotoxicity against human PBMC cells assessed as cell growth inhibition measured after 72 hrs by sulforhodamine B assay; assay type: cell-based
[25] = tested on: K562; test: Induction of apoptosis in human K562 cells at 30 nM measured after 48 hrs by Annexin V-FITC/7-AAD staining based flow cytometric analysis; assay type: functional, cell-based

Compound	IC50 [1]	IC50 [2]	other results
O=C(N1CCN(c2ccc([N+](=O)[O-])cc2)CC1)n1c2ccccc2c(=O)c2ccccc21	> 10000 nM	> 10000 nM	–
Nc1ccc(N2CCN(C(=O)n3c4ccccc4c(=O)c4ccccc43)CC2)cc1	> 10000 nM	> 10000 nM	–
COc1cccc(N2CCN(C(=O)n3c4ccccc4c(=O)c4cnccc43)CC2)c1	230 nM	720 nM	–
COc1ccccc1N1CCN(C(=O)n2c3ccccc3c(=O)c3cnccc32)CC1	670 nM	3900 nM	–
O=C(N1CCN(c2ccccc2Cl)CC1)n1c2ccccc2c(=O)c2ccccc21	4800 nM	7100 nM	–
COc1ccc(C(=O)n2c3ccccc3c(=O)c3ccccc32)cc1O	1300 nM	680 nM	–
CC[C@]1(O)C[C@H]2CN(CCc3c([nH]c4ccccc34)[C@@](C(=O)OC)(c3cc4c(cc3OC)N(C)[C@H]3[C@@](O)(C(=O)OC)[C@H](OC(C)=O)[C@]5(CC)C=CCN6CC[C@]43[C@@H]65)C2)C1	12 nM	130 nM	–
COc1ccccc1N1CCN(C(=O)n2c3ccccc3c(=O)c3cc([N+](=O)[O-])ccc32)CC1	> 10000 nM	> 10000 nM	–
COc1ccc(C(=O)n2c3ccccc3c(=O)c3ccccc32)cc1	1300 nM	1600 nM	inhibition [3]: 100%; Activity [4]: Dose-dependent effect; Activity [5]: Active
COc1cccc(N2CCN(C(=O)n3c4ccccc4c(=O)c4cccnc43)CC2)c1	32 nM	450 nM	–
COc1ccccc1N1CCN(C(=O)n2c3ccccc3c(=O)c3cccnc32)CC1	190 nM	1340 nM	–
COc1ccccc1N1CCN(C(=O)n2c3ccccc3c(=O)c3cc(N)ccc32)CC1	1300 nM	3100 nM	–
COc1ccc2c(c1)c(=O)c1ccccc1n2C(=O)N1CCN(c2ccccc2OC)CC1	1100 nM	3500 nM	–
COc1cccc(N2CCN(C(=O)n3c4ccccc4c(=O)c4cc(OC)ccc43)CC2)c1	330 nM	820 nM	–
Nc1cccc(N2CCN(C(=O)n3c4ccccc4c(=O)c4ccccc43)CC2)c1	900 nM	1300 nM	–
O=C(N1CCN(c2cccc(Cl)c2)CC1)n1c2ccccc2c(=O)c2ccccc21	38 nM	600 nM	–
COc1ccc(C(=O)n2c3ccccc3c(=O)c3ccccc32)cc1OCc1ccccc1	> 10000 nM	> 10000 nM	–
COc1ccc(N2CCN(C(=O)n3c4ccccc4c(=O)c4ccccc43)CC2)c(OC)c1	3000 nM	4700 nM	–
O=C(N1CCN(c2ccc(Cl)cc2)CC1)n1c2ccccc2c(=O)c2ccccc21	6100 nM	> 10000 nM	–
COc1ccccc1N1CCN(C(=O)n2c3ccccc3c(=O)c3cc(C#N)ccc32)CC1	830 nM	3400 nM	–
COc1ccc(OC)c(N2CCN(C(=O)n3c4ccccc4c(=O)c4ccccc43)CC2)c1	60 nM	440 nM	–
COc1cc(N2CCN(C(=O)n3c4ccccc4c(=O)c4ccccc43)CC2)cc(OC)c1OC	> 10000 nM	> 10000 nM	–

Compound	IC50 [1]	IC50 [2]	other results
O=C(c1ccccc1)n1c2ccccc2c(=O)c2ccccc21	> 10000 nM	> 10000 nM	–
COC(=O)Nc1nc2cc(C(=O)c3cccs3)ccc2[nH]1 [NOCODAZOLE]	220 nM	760 nM	–
N#Cc1cccc(N2CCN(C(=O)n3c4ccccc4c(=O)c4ccccc43)CC2)c1	45 nM	520 nM	–
COc1cccc(N2CCN(C(=O)n3c4ccccc4c(=O)c4cc(C#N)ccc43)CC2)c1	190 nM	–	–
COc1ccc(C(=O)n2c3ccccc3c(=O)c3cc(OC)ccc32)cc1	3900 nM	1400 nM	–
COc1ccc(C(=O)n2c3ccccc3c(=O)c3cc(C#N)ccc32)cc1	1300 nM	1700 nM	–
COc1ccccc1N1CCN(C(=O)n2c3ccccc3c(=O)c3ccccc32)CC1	55 nM	530 nM	–
COc1ccc(C(=O)n2c3ccccc3c(=O)c3ccccc32)cc1OC	> 10000 nM	> 10000 nM	–
COc1cccc(N2CCN(C(=O)n3c4ccccc4c(=O)c4cc([N+](=O)[O-])ccc43)CC2)c1	> 10000 nM	4200 nM	–
O=C(N1CCN(c2ccccc2)CC1)n1c2ccccc2c(=O)c2ccccc21	390 nM	900 nM	–
O=C(N1CCN(c2cccc(Br)c2)CC1)n1c2ccccc2c(=O)c2ccccc21	39 nM	690 nM	–
O=C(N1CCN(c2cccc(F)c2)CC1)n1c2ccccc2c(=O)c2ccccc21	89 nM	710 nM	–
COc1cccc(N2CCN(C(=O)n3c4ccccc4c(=O)c4ccccc43)CC2)c1	26 nM	330 nM	inhibition [6]: Active; Activity [7]: Active; Activity [4]: Dose-dependent effect; GI50 [8]: 1.3 nM; GI50 at 72 h [9]: 1.4 nM; GI50 [10]: 1.9 nM; GI50 [11]: 2 nM; GI50 [12]: 2.1 nM; GI50 [13]: 2.1 nM; GI50 [14]: 2.1 nM; GI50 [15]: 2.1 nM; GI50 [16]: 29.8 nM; GI50 [17]: 18 nM; GI50 [18]: 17.9 nM; GI50 [19]: 14.8 nM; GI50 [20]: 13.5 nM; GI50 [21]: 13.2 nM; GI50 [22]: 12.4 nM; GI50 [23]: 12.3 nM; GI50 at 72 h [24]: > 10 µM
COc1ccccc1C(=O)n1c2ccccc2c(=O)c2ccccc21	3900 nM	5500 nM	–
COc1cccc(N2CCN(C(=O)n3c4ccc(C#N)cc4c(=O)c4cc(OC)ccc43)CC2)c1	> 10000 nM	> 10000 nM	–
O=C(N1CCN(c2cccc([N+](=O)[O-])c2)CC1)n1c2ccccc2c(=O)c2ccccc21	200 nM	560 nM	–
COc1cc2c(c(OC)c1OC)-c1ccc(OC)c(=O)cc1[C@@H](NC(C)=O)CC2 [COLCHICINE]	13 nM	–	Activity [25]: Active
COc1ccc2c(c1)c(=O)c1cc(C#N)ccc1n2C(=O)N1CCN(c2ccccc2OC)CC1	> 10000 nM	> 10000 nM	–
COc1ccc(N2CCN(C(=O)n3c4ccccc4c(=O)c4ccccc43)CC2)cc1	> 10000 nM	> 10000 nM	–
O=C(N1CCN(c2cccnc2)CC1)n1c2ccccc2c(=O)c2ccccc21	620 nM	2900 nM	–
COc1cccc(C(=O)n2c3ccccc3c(=O)c3ccccc32)c1	> 10000 nM	> 10000 nM	–
COc1cccc(N2CCN(C(=O)n3c4ccccc4c(=O)c4cc(N)ccc43)CC2)c1	440 nM	1250 nM	–
